# According to patent EP1693059A1, “Use of rocaglamide derivatives as NF-AT-specific inhibitors for the treatment of certain inflammatory diseases” (Deutsches Krebsforschungszentrum, priority 2005, dated 2006):
# Experiments:
# JNK = assay: Immunoblot of phosphorylated JNK in Jurkat T cells; type: cell-based, human; conditions: with PMA/ionomycin
# Method: T cells were lysed in ice-cold RIPA buffer (50 mM Tris-HCl, pH 8.0, 120 mM NaCI, 1% NP-40, 0.5% Desoxycholate, 1 mM PMSF, 25 mM NaF, 1% SDS, 1 mM DTT, 0.2 mM Na3V04 and 20 µl/ml protease inhibitors) for 30 min. […] Equal amounts of proteins were separated on 10% SDS-PAGE gels, transferred onto Hybond-ECL nitrocellulose membrane (Amersham Biosciences, Little Chalfon, UK). The membrane was blocked with 5% milk powder in PBS/0.1% Tween 20 for 1 h, washed with the same solution and incubated with antibodies at 37°C for 1 h or overnight at 4 °C. The blots were washed with PBS/Tween and developed with HRP-coupled antibodies followed by enhanced Chemiluminescence Reagent Plus (PerkinElmer Life Sciences, Boston, MA). […] For stripping, membranes were incubated for 30 min at 56 °C in a buffer containing 62.5 mM Tris-HCl, pH 6.7, 2% SDS and 100 mM β-mercaptoethanol.
# To investigate the molecular mechanisms of rocaglamides-mediated suppression of NF-AT activity, we examined the effect of rocaglamides on activities of MAP kinases.
# NF-kappa B [1] = conditions: Baumann et al., 2002; cited from earlier work
# NF-kappa B subunit p65 = assay: Immunoblot of nuclear NF-kappa B subunit p65 in activated Jurkat T cells; type: cell-based, human; conditions: PMA/ionomycin 2 h
# Method: Many inflammatory cytokine genes are transcriptionally activated by the inducible, ubiquitous transcription factors NF-AT, AP-1 and NF-kappa B (Tsai et al., 1996; Sica et al., 1997; Falvo et al., 2000; Macian et aL, 2001; Kaminuma et al., 2002; Li-Weber & Krammer, 2003). Therefore, we first examined the effect of the rocagtamide derivatives on nuclear expression levels of NF-AT, the AP-1 subunit c-Jun, and the NF-kappa B subunit p65 in activated T cells. Nuclear proteins were prepared from Jurkat T cells, stimulated by PMA/iouomycin for 2 h in the presence or absence of different doses of rocaglamides. […] CsA is a well known immunosuppressive reagent that targets NF-AT activity.
# NF-kappa B [2] = assay: NF-kappa B consensus luciferase reporter in Jurkat T cells; type: cell-based, human; conditions: for inhibition of NF-kappa B-dependent transcription: doses higher than 150 nM, 480 min
# Description: Luciferase reporter construct containing the human IL-2 (-300/+47), the human IL-4 (-269/+11) promoter and the multiple IL-4 NF-AT (P1) luciferase constructs were generated previously (Ehret et al., 2001; Li-Weber et al., 1998). The multiple copies of the AP-1 binding site from SV40 enhancer ([…]), the NF-kappa B consensus sequence ([…]) and the human IL-2 NF-AT (-282/-250) element ([…]) were constructed by ligation of the DNA sequence into the multiple-cloning site of pTATA-Luc vector. The luciferase reporter construct containing the human IFN-γ (-854/+7) promoter was construct by ligation of the IFN-γ promoter sequence generated by PCR into the luciferase reporter vector. All constructs were confirmed by sequencing analysis. The pLuc-Bax promoter reporter plasmid was kindly provided by M. L. Schmitz (Department for Chemistry and Biochemistry, University of Bern, Switzerland).
# Jurkat T cells were transfected by eleclroporation as previously described (Li-Weber et al., 1998). After overnight recovering, the cells were divided and treated with different doses of rocaglamides and than further cultured in the absence or presence of PMA (10 ng/ml) and ionomycin (0.5 µM) for 8 h. Luciferase activity was determined in 10 µl of cell extract using the luciferase assay substrate (Promega Corp., Heidelberg, Germany) with a Duolumat LB9507 luminometer (Berthold, Bad Wildbad, Germany).
# Characteristically, NF-AT family proteins act synergistically with AP-1 (Fos/Jun) proteins to activate genes containing composite NF-AT and AP-1 binding sites (Macian et al., 2001). Many cytokine genes, including IL-2, IL-4, and IFN-γ contain NF-AT/AP-1 composite sites in their promoter/enhancer region (Rao et al., 1997). To investigate whether inhibition of NF-AT and c-Jun expression by rocaglamides would lead to suppression of their transcriptional activities, we performed transfection studies with luciferase reporter constructs containing multiple copies of the NF-AT-binding elements derived from the IL-4 and IL-2 promoter and the consensus binding sequences for AP-1 and NF-kappa B, respectively. […]
Compound,expression of phosphor-JNK (p-JNK) (JNK),NF-kappa B activity induced by TNF-α or PMA (NF-kappa B [1]),nuclear levels of p65 (NF-kappa B subunit p65),NF-kappa B activity (NF-kappa B [2]; concentrations up to 100 nM),inhibition of NF-kappa B-dependent transcription (NF-kappa B [2])
COc1ccc([C@@]23Oc4cc(OC)cc(OC)c4[C@]2(O)[C@H](O)[C@H](C(=O)N(C)C)[C@H]3c2ccccc2)cc1 [Roc-1],stronger inducers of p-JNK than Roc-2,inhibit NF-kappa B activity,slightly elevated,subtle increase,–
COc1ccc([C@@]23Oc4cc(OC)cc(OC)c4[C@]2(O)[C@H](OC(C)=O)[C@H](C(=O)N(C)C)[C@H]3c2ccccc2)cc1 [Roc-2],Roc-1 and 3 are stronger inducers of p-JNK than Roc-2,–,–,–,about 20%
COC(=O)[C@H]1[C@@H](OC=O)[C@@]2(O)c3c(OC)cc(OC)cc3O[C@@]2(c2ccc3c(c2)OCO3)[C@@H]1c1ccccc1 [Roc-3],stronger inducers of p-JNK than Roc-2,–,–,–,about 20%
